Data reported in US5587397A, “Reduction of elevated blood lactate using twice-daily dichloroacetate” (Cypros Pharmaceutical Corporation, priority 1995, dated 1996).
Entries after “also recorded” stand apart in the source; their conditions may differ. Where two headings read alike, the source gives them in different places.

Legend:
[1] = test system: serum lactate; assay: Serum/blood lactate concentration in human volunteers after intravenous DCA infusion; format: in vivo; settings: for Serum lactate, baseline: before infusion; for Serum lactate, baseline / Serum lactate just before second infusion / Serum lactate 14 h after second infusion: mean ± SEM; for Serum lactate just before second infusion: second infusion 8 h later; for Level of statistical significance, (b) vs. placebo: just before second infusion; for Persistence of lactate reduction relative to DCA clearance: 60 mg/kg
Experimental: Eighteen human beings entered this study; all provided informed consent that was acceptable to an independent Institutional Review Board, which also approved the study design and toxicological coverage. The human subjects were all healthy, were fasted for 18 hours prior to the study infusions, and were all within 85% to 115% of ideal body weight, using actuarial tables published by the Metropolitan Life Insurance Company. Each received an accurately measured meal (late breakfast, 821 kcal total including 116 g of carbohydrate, 30 g of protein, and 32 g of fat).
(§1) Teflon venous catheters were placed in both forearms of all subjects. One, for drug administration, was left in place for 10 hours. The other, for blood sampling, was left in place for about 30 hours. Both venous cannulae were regularly flushed with a heparin-saline solution to avoid any risk of clogging or clotting. When blood was sampled, the first-drawn fluid was discarded, so that blood samples were not contaminated with the heparin-saline solution.
(§2) Sodium dichloroacetate (NaDCA; purchased in powdered form from TCI America, Inc., Portland, Oreg.) was dissolved in saline solution to provide a 10% sterile solution (i.e., 10 g of NaDCA in 100 ml solution) at a contract lab. The vials containing 10% solution were shipped to the study site, in Indiana, and then diluted to form approximately 2% solutions in intravenous drip bags. Exact concentrations depended to some extent on the weight of each patient; all concentrations were within 20 % of isotonic levels. A 2% solution was administered through one cannula into each test subject over a period of 30 minutes, at a dosage of 30 mg/kg (i.e, 30 milligrams of NaDCA salt per kilogram of body weight). The average total weight of NaDCA infused into each patient was about 2.26±0.54 g; total volume of solution was about 100 ml. […] Nine subjects received a single infusion of DCA, and nine received the saline placebo.
(§3) Samples of venous blood from the other cannula (in the opposite forearm) were taken, before and several times periodically after the intravenous infusion. The infusions were number-coded, and all solutions (both active and placebo) were colorless; therefore, this was a double-blinded study.
Blood samples were collected into tubes containing sodium heparin, and spun at 64 G (i.e., 64 times normal gravity) for 10 minutes, to remove blood cells. The supernatant was then deproteinized, using 6% perchloric acid; various other agents, such as acetonitrile, could alternately be used if desired. The deproteinized liquid was then centrifuged again at 64 G for 10 minutes, and the supernatant was decanted and divided into 0.20 mL aliquots. At least one aliquot was stored at -40° C. as a backup in case checks were needed, while tests were run on other aliquots.
Blood samples were assayed for lactate concentration at a registered clinical laboratory (SmithKline Beckman, in Evansville, Ind.), using a commercial assay kit sold by Sigma Chemical Company (St. Louis, Mo.). This assay uses an enzymatic procedure involving lactate dehydrogenase; it adds glycine to the samples as a buffer, along with a standardized excess amount of NAD. The lactate dehydrogenase enzyme converts lactate to pyruvate, and the hydrogen atoms that are liberated by this reaction convert NAD to reduced NAD (NADH). The NADH absorbs ultraviolet light at 340 nm, and the level of absorbance (measured by a spectrophotometer) is directly proportional to the amount of NADH in the sample, and thus to the amount of lactate that was initially present in the sample.
In a second set of test subjects (18 total: 9 test subjects and 9 saline placebo controls), sodium DCA was administered in an identical manner, using a single 30-minute infusion, at a dosage of 60 mg/kg. […]

[2] = DCA clearance from the blood of human subjects after intravenous infusion; format: in vivo
Experimental: as §1, §2, §3
Blood samples were collected into tubes containing sodium heparin, and spun at 64 G (i.e., 64 times normal gravity) for 10 minutes, to remove blood cells. The supernatant was then deproteinized, using 6% perchloric acid; various other agents, such as acetonitrile, could alternately be used if desired. […]

[3] = Reported DCA pharmacokinetics in dogs (literature); format: in vivo, dog; settings: dogs vs. 0.5 hour in humans
Text: Accordingly, dogs cannot be used as reliable models or predictors for the pharmacokinetic effects of DCA in humans.

[4] = Reported DCA concentration and clearance in rats (literature); format: in vivo, rat; settings: oral 100 mg/kg vs. human i.v.
Experimental: Evans et al 1981 administered DCA orally, in 100 mg/kg doses, either once, or daily for seven days.

[5] = Side effects of DCA infusion in healthy volunteers; format: in vivo, human; settings: 100 mg/kg infused within 30 minutes
Experimental: Accordingly, to ensure that this effect would not occur when DCA was administered, an initial dose of 100 mg/kg NaDCA was infused into test subjects, and a second dose of 50 mg/kg was infused 8 hours later.
The dose of 100 mg/kg is the highest dose so far administered to human beings within 30 minutes. […] This was not considered clinically significant and needed no treatment; it would be relatively unimportant in most of the pathological states that are proper subjects for treatment using DCA. However, the sedation side effect was regarded as creating a practical limit (100 mg/kg infused in 30 minutes or less) for tests on healthy volunteers.

[6] = humans, cited from earlier work
[7] = dogs; Lukas et al 1980, Ribes et al 1979; cited from earlier work
[8] = cited from earlier work
[9] = test system: pyruvate dehydrogenase enzyme complex; settings: rats; Evans 1982; cited from earlier work
[10] = especially over prolonged periods, Stacpoole et al 1979; cited from earlier work
[11] = 100 + 50 group, 14 h after second infusion

## O=C([O-])C(Cl)Cl.[Na+] [DCA, sodium dichloroacetate]
[1]; 60 mg/kg as printed in legend
  Duration of blood lactate reduction (FIG. 3 legend): more than 8 hours
[1]; 100 mg/kg followed by 50 mg/kg 8 hours later
  Persistence of reduction in serum lactate after the first infusion: more than 22 hours
[1]; 100 mg/kg single i.v. infusion
  Duration of lactate reduction: > 8 h
[1]; 100 mg/kg single i.v. infusion, in words
  Persistence of lactate reduction relative to serum DCA: persistent reduction in serum lactate levels which significantly outlasted the serum DCA concentrations
[1]; 60 + 30 group (mg/kg)
  Serum lactate, baseline: 1.19 ± 0.24 mM
  Serum lactate just before second infusion: 0.72 ± 0.15 mM
  Serum lactate 14 h after second infusion: 0.94 ± 0.12 mM
[1]; 60 + 30 group, 14 h after second infusion
  Level of statistical significance, (c) vs. placebo: 0.021
[1]; 60 + 30 group
  Level of statistical significance, (b) vs. placebo: 0.009
[1]; 100 + 50 group (mg/kg)
  Serum lactate, baseline: 0.84 ± 0.10 mM
  Serum lactate just before second infusion: 0.39 ± 0.04 mM
  Serum lactate 14 h after second infusion: 0.32 ± 0.08 mM
[1]; [11]
  Level of statistical significance, (c) vs. 60 + 30: 0.004
  Level of statistical significance, (c) vs. placebo: < 0.001
[1]; 100 + 50 group
  Level of statistical significance, (b) vs. placebo: < 0.001
[1]; single 30 mg/kg i.v. infusion, in words, FIG. 1, 30 mg/kg
  Time course of DCA concentration and lactate reduction: a peak of DCA concentration which rapidly dropped off, and a similar peak in lactate reduction which disappeared fairly rapidly; also recorded: closely paralleled (over time) the clearance of DCA from the blood
[1]; single 30 mg/kg i.v. infusion, in words, 30 mg/kg
  Duration of blood lactate reduction: returned to normal levels within a few hours
[1]; single 30 mg/kg i.v. infusion, in words, listed as NaDCA, 30 mg/kg
  Duration of blood lactate reduction: lasted only a few hours
[1]; single 60 mg/kg i.v. infusion, at 6.5 hours and afterwards
  Reversal of the decline in serum lactate levels: no evidence of reversal of the decline in serum lactate levels
[1]; single 60 mg/kg i.v. infusion, in words
  Persistence of lactate reduction relative to DCA clearance: significantly outlasted the persistence of serum DCA levels
[1]; single 60 mg/kg i.v. infusion, in words, listed as NaDCA
  Persistence of lactate reduction relative to DCA clearance: lasted substantially longer and persisted even after substantially all of the DCA had been cleared from the patient's blood; also recorded: substantially outlasted the clearance of DCA from the circulation
[1]; two infusions eight hours apart
  Duration of reduction in plasma lactate after start of second infusion: more than 12 hours
[1]; two injections, about 40 mg/kg DCA or more per injection
  Duration of serum lactate reduction using two injections over 24 h: ≥ 24 h
[2]; 30 mg/kg i.v., prior 60 mg/kg 8 hours earlier, FIG. 4
  Clearance rate of 30 mg/kg dose with vs. without prior DCA exposure: comparable
[2]; 50 mg/kg i.v., prior 100 mg/kg 8 hours earlier
  Clearance rate of 50 mg/kg dose after prior exposure vs. single 60 mg/kg dose: similar
[2]; single 60 mg/kg i.v., by 6.5 hours
  DCA clearance from blood: nearly all of the DCA had already been avidly cleared from the blood
[3]
  Half-life in dogs relative to humans: about 40 times longer
[4]
  Inferred plasma concentration relative to that in human patients dosed intravenously: about 1/10
[5]
  Duration of transient sedation or sleepiness: about 20 minutes
  Transient sedation or sleepiness: a number of subjects reported transient sedation or sleepiness
[6]; Lukas et al 1980, Ribes et al 1979
  Half-life: 30 min
[6]; Wells et al 1980
  Half-life: 31 min
  Time to complete elimination: ≤ 5 h
[6]; in words
  Clearance from circulating blood: rapidly cleared
[7]
  Half-life: 1140 to 1440 min
[8]; oral 100 mg/kg, once or daily for seven days, Evans et al 1981
  Peak DCA concentration in liver tissue: about 25 μg of DCA per gram of liver tissue
[8]; rats, Evans 1982
  DCA concentration in the liver over time: declined rapidly with time
[8]; rats, in words
  DCA clearance: fairly rapid
[9]
  Activation of the pyruvate dehydrogenase enzyme complex over time: dropped off rapidly with time
[10]
  Toxic effects of oral administration: may have toxic effects
